Test results reported in US20090123940A1, “MOLECULES INVOLVED IN SYNAPTOGENESIS AND USES THEREFOR” (THE JOHNS HOPKINS UNIVERSITY, priority 2007, published 2009).

Test system: Purkinje cells cultured from embryonic mouse cerebellum
Experiment: LTD of glutamate-evoked inward current in cultured Purkinje cells (glutamate test pulses paired with depolarizing steps)
Assay type: cell-based
Details: t=40 min; TAPI-2 10 μM, GM6001 1 μM, GM6001 control compound 1 μM; n=7
Method: Recording and Ca^2+ imaging in cerebellar cultures. Cultures of embryonic mouse cerebellum were prepared as previously described and recordings were performed according to our previously published method (Leitges et al., Neuron 44:585-94, 2004). […]. Test pulses were delivered using negative current pulses (300-700 nA, 30-80 msec duration). LTD-inducing pairing stimuli consisted of six, 3-s-long depolarizations to 0 mV, each delivered together with a test pulse of glutamate.
Membrane currents were recorded with an Axopatch 200A amplifier, and digitized at 10 kHz for exogenous glutamate responses and 20 kHz for mEPSCs. Signals were lowpass filtered at 5 kHz (1 kHz for mEPSCs) and acquired using Axograph X software (Axograph Scientific, Sydney, Australia). Recordings in which Rinput or Rseries varied by more than 10% were excluded from the analysis. For analysis of mEPSCs, Axograph X mini analysis software was used. This detected events based on closeness of fit of the mEPSC to a sliding template. Events smaller than − ? 4 pA were discarded. A separate template was created for each recording by averaging 30 of its most unambiguous mEPSCs as selected by eye.
Other studies have shown that LTD in Purkinje cells cultured from embryonic mouse cerebellum requires activation of mGluR1, and is expressed postsynaptically as a reduction in surface AMPA receptors (Chung et al., Science 300:1751-5, 2003; Leitges et al., Neuron 44:585-94, 2004; Linden, PNAS 98:14066-71, 2001; Matsuda et al., EMBO J. 19:2765-74, 2000; Steinberg et al., Neuron 49:845-60, 2006; Wang and Linden, Neuron 25:635-47, 2000). Here, LTD was examined using a purely postsynaptic model in which iontophoretic test pulses of glutamate are applied to voltage-clamped Purkinje cells in culture. Following a baseline recording period, LTD was induced by pairing six 3 sec long depolarizing steps to 0 mV with six glutamate test pulses. When test pulses were resumed after pairing, LTD of the glutamate-evoked inward current was evident (52±9.0% of baseline at t=40 min, n=7 cells, FIG. 6A). […]

In the case of CC(C)C[C@H](CC(=O)NO)C(=O)N[C@H](C(=O)N[C@@H](C)C(=O)NCCN)C(C)(C)C [TAPI-2], the “glutamate-evoked inward current after LTD induction” value is reported as 112±8.6 % of baseline.
